Where two headings read alike, the source gives them in different places.
Assays:
Spodoptera frugiperda = Spodoptera frugiperda spray test (maize leaf discs); type: in vivo; details: after 7 days; for pest or weed control at 100 g/ha: Spodoptera frugiperda, foliar, 168 h, read-out: efficacy
Source text: Spodoptera Frusiperda—Spray Test Solvent: 78.0 parts by weight of acetone • • 1.5 parts by weight of dimethylformamide Emulsifier: alkylaryl polyglycol ether An appropriate active ingredient formulation is produced by dissolving 1 part by weight of active ingredient with the stated parts by weight of solvent and making the solution up to the desired concentration with water containing an emulsifier concentration of 1000 ppm. Further test concentrations are produced by diluting the formulation with emulsifier-containing water. Leaf discs of maize (Zea mays) are sprayed with an active ingredient formulation of the desired concentration and, after drying, populated with caterpillars of the fall armyworm (Spodoptera frugiperda). After 7 days, efficacy in % is determined. 100% means that all the caterpillars have been killed; 0% means that no caterpillar has been killed.

Diabrotica balteata = Diabrotica balteata spray test; type: in vivo; details: wheat grains, after 7 days; for pest or weed control at 100 g/ha / pest or weed control at 125 g/ha: Diabrotica balteata, 168 h, read-out: efficacy; for pest or weed control at 125 g/ha: 125 g/ha (=40 μg/cavity)
Source text: Diabrotica balteata—Spray Test Solvent: 78 parts by weight of acetone • • 1.5 parts by weight of dimethylformamide Emulsifier: alkylaryl polyglycol ether An appropriate active ingredient formulation is produced by dissolving 1 part by weight of active ingredient with the stated parts by weight of solvent and making the solution up to the desired concentration with water containing an emulsifier concentration of 1000 ppm. Further test concentrations are produced by diluting the formulation with emulsifier-containing water. Pre-swollen wheat grains (Triticum aestivum) are incubated in a multiwell plate filled with agar and a little water for one day (5 seed grains per cavity). The germinated wheat grains are sprayed with an active ingredient formulation of the desired concentration. Subsequently, each cavity is infected with 10-20 beetle larvae of Diabrotica balteata. After 7 days, efficacy in % is determined. 100% means that all wheat plants have grown as in the untreated, uninfected control; 0% means that no wheat plant has grown.

Meloidogyne incognita = Meloidogyne incognita test; type: in vivo; details: lettuce, gall formation after 14 days; for pest or weed control at 20 ppm: Meloidogyne incognita, 336 h, read-out: nematicidal efficacy
Source text: Meloidogyne incognita Test Solvent: 125.0 parts by weight of acetone An appropriate active ingredient formulation is produced by mixing 1 part by weight of active ingredient with the stated amount of solvent and diluting the concentrate to the desired concentration with water. Vessels are filled with sand, active ingredient solution, an egg/larvae suspension of the southern root-knot nematode (Meloidogyne incognita) and lettuce seeds. The lettuce seeds germinate and the plants develop. The galls develop on the roots. After 14 days, the nematicidal efficacy in % is determined by the formation of galls. 100% means that no galls were found; 0% means that the number of galls on the treated plants corresponds to the untreated control.

[1] = log P by HPLC on reversed-phase column (C18); type: physicochemical; details: LC-UV
Experimental: log P Values The log P values were determined according to EEC Directive 79/831 Annex V.A8 by HPLC (high-performance liquid chromatography) on a reversed-phase column (C18) using the following methods: ^[a] […] Calibration was carried out using straight-chain alkan-2-ones (having 3 to 16 carbon atoms) with known log P values. The values between successive alkanones are determined by linear regression.

Myzus persicae = Myzus persicae oral test; type: in vivo; details: 4 ppm, after 5 days
Experimental: Myzus persicae—Oral Test Solvent: 100 parts by weight of acetone An appropriate active ingredient formulation is produced by dissolving 1 part by weight of active ingredient with the specified parts by weight of solvent and making the solution up to the desired concentration with water. 50 μl of the active ingredient formulation is transferred into microtitre plates and made up to a final volume of 200 μl with 150 μl of IPL41 insect medium (33%+15% sugar). Subsequently, the plates are sealed with parafilm, which a mixed population of green peach aphids (Myzus persicae) within a second microtitre plate is able to puncture and imbibe the solution. After 5 days, efficacy in % is determined. 100% means that all the aphids have been killed; 0% means that no aphids have been killed.

Nezara viridula [2] = assay: Nezara viridula spray test (infected barley plants sprayed); type: in vivo; details: 100 g ai/ha, after 4 days
Source text: (§1) Nezara viridula—Spray Test Solvent: 52.5 parts by weight of acetone • 7 parts by weight of dimethylformamide Emulsifier: alkylaryl polyglycol ether An appropriate active ingredient formulation is produced by dissolving 1 part by weight of active ingredient with the stated parts by weight of solvent and making the solution up to the desired concentration with water containing an emulsifier concentration of 1000 ppm. Further test concentrations are produced by diluting the formulation with emulsifier-containing water. If the addition of ammonium salts or/and penetrants is required, these are each added in a concentration of 1000 ppm to the formulation solution. Barley plants (Hordeum vulgare) infected with larvae of the Southern green shield bug (Nezara viridula) are sprayed with an active ingredient formulation of the desired concentration. After 4 days, efficacy in % is determined. 100% means that all of the shield bugs have been killed; 0% means that none of the shield bugs have been killed.

Nezara viridula [3] = assay: Nezara viridula spray test (plants sprayed, then infected); type: in vivo; details: 500 g/ha, barley plants, after 4 days
Source text: as §1, with “78.0” for “52.5”, “• 1.5” for “7”, “water.” for “water. If the addition of ammonium salts or/and penetrants is required, these are each added in a concentration of 1000 ppm to the formulation solution.”, “vulgare) are sprayed with an active ingredient formulation of the desired concentration and are” for “vulgare)”, “viridula).” for “viridula) are sprayed with an active ingredient formulation of the desired concentration.”

[4] = neutral range, ammonium acetate/acetonitrile, read-out: log P (neutral)

| SMILES | pest or weed control at 100 g/ha (Spodoptera frugiperda) [%] | pest or weed control at 100 g/ha (Diabrotica balteata; 100 g/ha (=32 μg/cavity)) [%] | pest or weed control at 20 ppm (Meloidogyne incognita) [%] | also measured |
| --- | --- | --- | --- | --- |
| CCS(=O)(=O)c1ccc(-n2ncn(-c3ccc(I)cc3)c2=O)nc1-c1nc2cc(C(F)(F)C(F)(F)F)nnc2n1C [Example I-09] | 100 | 100 | 90 | – |
| Cn1c(-c2nc(F)ccc2F)nc2cc(C(F)(F)C(F)(F)F)cnc21 [2-(3,6-Difluoro-2-pyridyl)-3-methyl-6-(1,1,2,2,2-pentafluoroethyl)imidazo[4,5-b]pyridine] | – | – | – | chromatographic logP [1, 4]: 3.3 |
| CCS(=O)(=O)c1ccc(-n2ncn(-c3ccc(Cl)c(C#N)c3)c2=O)nc1-c1nc2cc(C(F)(F)C(F)(F)F)nnc2n1C [Example I-08] | 100 | 100 | 100 | – |
| CCS(=O)(=O)c1ccc(-n2ncn(-c3ccc(C#N)c(Cl)c3)c2=O)nc1-c1nc2cc(C(F)(F)C(F)(F)F)nnc2n1C [Example I-05] | 100 | 100 | 100 | – |
| CCS(=O)(=O)c1ccc(-n2ncn(-c3cccc(C4(C#N)CC4)c3)c2=O)nc1-c1nc2cc(C(F)(F)C(F)(F)F)nnc2n1C [Example I-01] | 100 | 100 | – | – |
| CCSc1ccc(F)nc1-c1nc2cc(C(F)(F)C(F)(F)F)cnc2n1C [2-(3-Ethylsulfanyl-6-fluoro-2-pyridyl)-3-methyl-6-(1,1,2,2,2-pentafluoroethyl)imidazo[4,5-b]pyridine] | – | – | – | chromatographic logP ([1]; acidic range, formic acid/acetonitrile, read-out: log P (acidic)): 4.05 |
| CCS(=O)(=O)c1ccc(-n2ncn(-c3ccc(C#N)c(Cl)c3)c2=O)nc1-c1nc2cc(C(F)(F)C(F)(F)F)cnc2n1C [Example I-17] | 100 | 100 | 90 | efficacy (Myzus persicae): 90% |
| CCS(=O)(=O)c1ccc(-n2ncn(-c3ccc(/C=N/OC)cc3)c2=O)nc1-c1nc2cc(C(F)(F)C(F)(F)F)cnc2n1C [Example I-24] | 100 | 100 | – | – |
| CCS(=O)(=O)c1ccc(-n2ncn(-c3ccc(I)cc3)c2=O)nc1-c1nc2cc(C(F)(F)C(F)(F)F)cnc2n1C [Example I-20] | 100 | – | 90 | pest or weed control at 125 g/ha (Diabrotica balteata): 100%; efficacy (Nezara viridula [2]): 100% |
| CCS(=O)(=O)c1ccc(-n2ncn(-c3cccc(Cl)c3)c2=O)nc1-c1nc2cc(C(F)(F)C(F)(F)F)cnc2n1C [Example I-19] | 100 | 100 | – | – |
| CCS(=O)(=O)c1ccc(-n2ncn(-c3ccc(F)cc3)c2=O)nc1-c1nc2cc(C(F)(F)C(F)(F)F)nnc2n1C [Example I-10] | 100 | 100 | 100 | – |
| CCS(=O)(=O)c1ccc(F)nc1-c1nc2cc(C(F)(F)C(F)(F)F)cnc2n1C [2-(3-Ethylsulfonyl-6-fluoro-2-pyridyl)-3-methyl-6-(1,1,2,2,2-pentafluoroethyl)imidazo[4,5-b]pyridine] | – | – | – | chromatographic logP [1, 4]: 3.33 |
| CCS(=O)(=O)c1ccc(-n2ncn(-c3cccc(C4(C#N)CC4)c3)c2=O)nc1-c1nc2cc(C(F)(F)C(F)(F)F)cnc2n1C [Example I-04] | 100 | 100 | – | efficacy (Nezara viridula [3]): 100% |
| CCS(=O)(=O)c1ccc(-n2ncn(-c3cccc(Cl)c3)c2=O)nc1-c1nc2cc(C(F)(F)C(F)(F)F)nnc2n1C [Example I-13] | 100 | 100 | – | efficacy (Nezara viridula [2]): 100% |
| CCS(=O)(=O)c1ccc(-n2ncn(-c3cccc(F)c3)c2=O)nc1-c1nc2cc(C(F)(F)C(F)(F)F)cnc2n1C [Example I-16] | 100 | 100 | 100 | – |
| CCS(=O)(=O)c1ccc(-n2ncn(-c3cccc(Br)c3)c2=O)nc1-c1nc2cc(C(F)(F)C(F)(F)F)nnc2n1C [Example I-15] | 100 | – | – | efficacy (Diabrotica balteata; 100 g/ha (=32 μg/cavity)): 100%; nematicidal efficacy (Meloidogyne incognita; 20 ppm): 100%; efficacy (Nezara viridula [2]): 100% |
| CCS(=O)(=O)c1ccc(-n2ncn(-c3ccc(Cl)c(C#N)c3)c2=O)nc1-c1nc2cc(C(F)(F)C(F)(F)F)cnc2n1C [Example I-07] | 100 | 100 | 100 | efficacy (Nezara viridula [3]): 100% |
| CCS(=O)(=O)c1ccc(-n2ncn(-c3ccc(C4(C#N)CC4)cc3)c2=O)nc1-c1nc2cc(C(F)(F)C(F)(F)F)nnc2n1C [Example I-21] | 100 | – | 90 | pest or weed control at 125 g/ha (Diabrotica balteata): 100%; efficacy (Myzus persicae): 100% |
| CCS(=O)(=O)c1ccc(-n2ncn(-c3cccc(Br)c3)c2=O)nc1-c1nc2cc(C(F)(F)C(F)(F)F)nnc2n1C [Example I-11] | – | 100 | 100 | efficacy (Spodoptera frugiperda; 100 g/ha): 100%; efficacy (Nezara viridula [2]): 90% |
| CCS(=O)(=O)c1ccc(-n2ncn(-c3cccc(I)c3)c2=O)nc1-c1nc2cc(C(F)(F)C(F)(F)F)cnc2n1C [Example I-18] | 100 | 100 | – | efficacy (Nezara viridula [2]): 90% |

Reference: patent US20240294533A1, “2-(HET)ARYL-SUBSTITUTED CONDENSED HETEROCYCLE DERIVATIVES AS PEST CONTROL AGENTS” (Bayer Aktiengesellschaft, priority 2021, published 2024)
